Test results taken from US8921071B2, “Targeting poly-gamma-glutamic acid to treat Staphylococcus epidermidis and related infections” (priority 2005, dated 2014).
No end group written: not given here.

System: S. epidermidis
Test: Peptide bacterial killing assay
Type: cell-based, Staphylococcus epidermidis
Conditions: S. epidermidis Δcap versus wild-type; approximately 10^5 cells; 0-40 μg/ml peptide; 2 hours at 37° C.; survivors counted by plating
Experimental: S. epidermidis cultures were harvested, washed with PBS buffer, and resuspended in 10 mM sodium phosphate buffer (pH 7.0). Bacterial killing assays were performed using a final concentration of approximately 10^5 S. epidermidis cells in each sample. Antimicrobial peptides were dissolved in the following solutions: human β-defensin 3, 10 mM acetic acid, and LL-37, 10% acetonitrile with 0.1% trifluoroacetic acid. The bacteria were exposed to a range of antimicrobial peptide concentrations (0, 5, 10, 20, 30, and 40 μg/ml). An equal volume of the respective peptide dilution buffer was applied to control samples. Samples were incubated at 37° C. for 2 hours and appropriate dilution series of the samples were plated on TSB agar. Survivor S. epidermidis cells were enumerated after 24 hours of incubation at 37° C. The percentage of killed S. epidermidis was calculated using the formula (1−[CFUpeptide/CFUcontrol])×100.
Resistance to cationic antimicrobial peptides was determined by incubating washed S. epidermidis cells (approximately 10^5) with LL-37 or human β-defensin 3 in various concentrations of antimicrobial peptides for 2 hours at 37° C. Thereafter, S. epidermidis survivor cells were counted by plating. Results are shown as dose-response curves. […] Values of significance were calculated against the wild-type (for Δcap) and Δcap (for capBCAD) strains.

LL-37 (LLGDFFRKSKEKIGKEFKRIVQRIKDFLRNLVPRTES; Antibacterial peptide LL-37; UniProt P49913 134-170, looked up) [representative cationic antibacterial peptide from human skin and neutrophil specific granules]
resistance of the cap mutant strain to antibacterial peptide: significantly reduced resistance

human β-defensin 3 (GIINTLQKYYCRVRGGRCAVLSCLPKEEQIGKCSTRGRKCCRRKK; ends and bridges not checked; cysteine pairing not given here; UniProt P81534 23-67, looked up) [representative cationic antibacterial peptide from human skin and neutrophil specific granules]
resistance of the cap mutant strain to antibacterial peptide: significantly reduced resistance
